Measurements as given in US7166584B1, “Cholesterol transport gene” (Wisconsin Alumni Research Foundation, priority 1999, dated 2007).

What was measured:
[1] = molecular target: T1, ABC1 (Mus musculus, UniProt P41233); assay: Cholesterol efflux from 3H-cholesterol-labeled J774 macrophages to apolipoprotein-A1; format: cell-based; design: Mouse macrophages (J774) were labeled with ^3H-cholesterol; endogenous in cells; host or cells: J774 mouse macrophages; conditions: 20 μg/ml human apolipoprotein-A1, indicated concentrations, 24 hours, data only in FIG. 4
Description: A cholesterol efflux assay measures the ability of cells to transfer cholesterol to an extracellular acceptor molecule and is dependent on ABC1 function. A standard cholesterol efflux assay is set out in Marcil et al., Arterioscler. Thromb. Vasc. Biol. 19:159–169, 1999, incorporated by reference herein for all purposes. Prior to this invention, this assay has not been used to identify compounds useful for reducing cholesterol transport from the gut to the blood or lymph, or for reducing LDL or serum cholesterol levels.
In this procedure, cells are loaded with radiolabeled cholesterol by any of several biochemical pathways. Cholesterol efflux of cells is measured after incubation for various times (typically 0 to 24 hours) in the presence of HDL3 or purified ApoAI. Cholesterol efflux is determined as the percentage of total cholesterol in the culture medium after various times of incubation. Increased ABC1 expression levels and/or biological activity are associated with increased efflux while decreased levels of ABC1 expression and/or biological activity are associated with decreased cholesterol efflux.
ABC1 activity can be inhibited genetically or chemically. […] After 24 hours, the medium was collected, centrifuged, and an aliquot collected for radioactivity determination by liquid scintillation counting. […]
Target sequence in this assay (P41233 whole entry): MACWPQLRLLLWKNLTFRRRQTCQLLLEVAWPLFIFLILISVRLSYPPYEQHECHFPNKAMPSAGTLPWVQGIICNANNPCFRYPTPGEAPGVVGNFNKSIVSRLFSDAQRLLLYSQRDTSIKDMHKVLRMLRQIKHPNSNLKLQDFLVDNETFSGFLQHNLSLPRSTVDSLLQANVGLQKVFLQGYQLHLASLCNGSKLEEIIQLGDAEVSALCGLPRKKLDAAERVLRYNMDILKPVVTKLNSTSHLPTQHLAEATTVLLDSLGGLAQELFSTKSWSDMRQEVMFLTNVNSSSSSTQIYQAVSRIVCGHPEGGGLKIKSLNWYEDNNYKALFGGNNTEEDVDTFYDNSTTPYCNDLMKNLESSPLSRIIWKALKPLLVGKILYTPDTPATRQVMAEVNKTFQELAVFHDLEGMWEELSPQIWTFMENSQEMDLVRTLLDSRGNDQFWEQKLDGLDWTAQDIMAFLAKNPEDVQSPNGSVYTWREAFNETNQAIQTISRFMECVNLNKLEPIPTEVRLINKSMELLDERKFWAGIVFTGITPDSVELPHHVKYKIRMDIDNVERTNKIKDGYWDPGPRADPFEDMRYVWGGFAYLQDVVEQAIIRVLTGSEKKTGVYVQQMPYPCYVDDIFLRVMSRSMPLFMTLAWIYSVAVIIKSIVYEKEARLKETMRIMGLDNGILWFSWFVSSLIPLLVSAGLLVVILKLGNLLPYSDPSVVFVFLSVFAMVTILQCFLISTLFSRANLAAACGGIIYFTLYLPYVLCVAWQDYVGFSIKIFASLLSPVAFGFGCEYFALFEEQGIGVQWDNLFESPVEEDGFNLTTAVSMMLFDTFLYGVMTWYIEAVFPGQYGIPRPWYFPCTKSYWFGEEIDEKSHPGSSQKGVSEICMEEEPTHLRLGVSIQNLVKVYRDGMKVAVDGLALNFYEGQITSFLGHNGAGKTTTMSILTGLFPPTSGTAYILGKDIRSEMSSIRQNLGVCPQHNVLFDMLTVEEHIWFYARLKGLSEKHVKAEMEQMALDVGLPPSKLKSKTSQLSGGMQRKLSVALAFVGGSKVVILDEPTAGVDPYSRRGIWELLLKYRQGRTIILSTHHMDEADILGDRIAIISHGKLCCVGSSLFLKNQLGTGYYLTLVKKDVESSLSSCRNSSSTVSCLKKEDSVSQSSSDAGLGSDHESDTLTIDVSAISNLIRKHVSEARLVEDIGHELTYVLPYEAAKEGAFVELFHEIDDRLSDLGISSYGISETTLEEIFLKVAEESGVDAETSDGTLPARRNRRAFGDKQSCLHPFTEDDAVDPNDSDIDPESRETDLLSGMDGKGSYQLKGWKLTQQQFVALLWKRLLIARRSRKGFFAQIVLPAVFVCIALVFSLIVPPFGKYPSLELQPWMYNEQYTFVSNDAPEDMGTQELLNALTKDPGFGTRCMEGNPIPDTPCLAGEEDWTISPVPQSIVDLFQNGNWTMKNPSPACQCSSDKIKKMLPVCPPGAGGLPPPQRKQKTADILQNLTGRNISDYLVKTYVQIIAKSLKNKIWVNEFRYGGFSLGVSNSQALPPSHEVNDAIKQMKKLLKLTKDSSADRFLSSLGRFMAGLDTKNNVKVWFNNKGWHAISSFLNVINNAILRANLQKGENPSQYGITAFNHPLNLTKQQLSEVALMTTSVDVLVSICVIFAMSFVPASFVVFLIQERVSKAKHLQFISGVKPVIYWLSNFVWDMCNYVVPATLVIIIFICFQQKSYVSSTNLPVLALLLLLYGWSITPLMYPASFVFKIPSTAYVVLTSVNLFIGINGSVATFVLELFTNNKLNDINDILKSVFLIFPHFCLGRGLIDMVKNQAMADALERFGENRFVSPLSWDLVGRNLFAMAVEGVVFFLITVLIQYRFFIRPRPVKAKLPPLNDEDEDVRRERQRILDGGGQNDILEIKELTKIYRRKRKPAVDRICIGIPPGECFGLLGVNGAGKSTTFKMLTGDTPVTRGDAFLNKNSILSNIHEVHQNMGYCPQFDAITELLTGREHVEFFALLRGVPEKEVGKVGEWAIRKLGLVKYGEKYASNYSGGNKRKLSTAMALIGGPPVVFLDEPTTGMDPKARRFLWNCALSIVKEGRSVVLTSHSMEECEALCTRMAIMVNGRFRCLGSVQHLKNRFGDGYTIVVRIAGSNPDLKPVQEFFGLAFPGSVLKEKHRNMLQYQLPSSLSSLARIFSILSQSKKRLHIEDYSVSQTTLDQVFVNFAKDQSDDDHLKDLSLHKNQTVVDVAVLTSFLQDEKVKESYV

[2] = molecular target: T1, ABC1; design: host or cells: frog oocytes; conditions: frog oocytes induced to express ABC1; Becq et al. 1997; cited from earlier work
Target sequence in this assay (P41233 61-2261 limits assumed): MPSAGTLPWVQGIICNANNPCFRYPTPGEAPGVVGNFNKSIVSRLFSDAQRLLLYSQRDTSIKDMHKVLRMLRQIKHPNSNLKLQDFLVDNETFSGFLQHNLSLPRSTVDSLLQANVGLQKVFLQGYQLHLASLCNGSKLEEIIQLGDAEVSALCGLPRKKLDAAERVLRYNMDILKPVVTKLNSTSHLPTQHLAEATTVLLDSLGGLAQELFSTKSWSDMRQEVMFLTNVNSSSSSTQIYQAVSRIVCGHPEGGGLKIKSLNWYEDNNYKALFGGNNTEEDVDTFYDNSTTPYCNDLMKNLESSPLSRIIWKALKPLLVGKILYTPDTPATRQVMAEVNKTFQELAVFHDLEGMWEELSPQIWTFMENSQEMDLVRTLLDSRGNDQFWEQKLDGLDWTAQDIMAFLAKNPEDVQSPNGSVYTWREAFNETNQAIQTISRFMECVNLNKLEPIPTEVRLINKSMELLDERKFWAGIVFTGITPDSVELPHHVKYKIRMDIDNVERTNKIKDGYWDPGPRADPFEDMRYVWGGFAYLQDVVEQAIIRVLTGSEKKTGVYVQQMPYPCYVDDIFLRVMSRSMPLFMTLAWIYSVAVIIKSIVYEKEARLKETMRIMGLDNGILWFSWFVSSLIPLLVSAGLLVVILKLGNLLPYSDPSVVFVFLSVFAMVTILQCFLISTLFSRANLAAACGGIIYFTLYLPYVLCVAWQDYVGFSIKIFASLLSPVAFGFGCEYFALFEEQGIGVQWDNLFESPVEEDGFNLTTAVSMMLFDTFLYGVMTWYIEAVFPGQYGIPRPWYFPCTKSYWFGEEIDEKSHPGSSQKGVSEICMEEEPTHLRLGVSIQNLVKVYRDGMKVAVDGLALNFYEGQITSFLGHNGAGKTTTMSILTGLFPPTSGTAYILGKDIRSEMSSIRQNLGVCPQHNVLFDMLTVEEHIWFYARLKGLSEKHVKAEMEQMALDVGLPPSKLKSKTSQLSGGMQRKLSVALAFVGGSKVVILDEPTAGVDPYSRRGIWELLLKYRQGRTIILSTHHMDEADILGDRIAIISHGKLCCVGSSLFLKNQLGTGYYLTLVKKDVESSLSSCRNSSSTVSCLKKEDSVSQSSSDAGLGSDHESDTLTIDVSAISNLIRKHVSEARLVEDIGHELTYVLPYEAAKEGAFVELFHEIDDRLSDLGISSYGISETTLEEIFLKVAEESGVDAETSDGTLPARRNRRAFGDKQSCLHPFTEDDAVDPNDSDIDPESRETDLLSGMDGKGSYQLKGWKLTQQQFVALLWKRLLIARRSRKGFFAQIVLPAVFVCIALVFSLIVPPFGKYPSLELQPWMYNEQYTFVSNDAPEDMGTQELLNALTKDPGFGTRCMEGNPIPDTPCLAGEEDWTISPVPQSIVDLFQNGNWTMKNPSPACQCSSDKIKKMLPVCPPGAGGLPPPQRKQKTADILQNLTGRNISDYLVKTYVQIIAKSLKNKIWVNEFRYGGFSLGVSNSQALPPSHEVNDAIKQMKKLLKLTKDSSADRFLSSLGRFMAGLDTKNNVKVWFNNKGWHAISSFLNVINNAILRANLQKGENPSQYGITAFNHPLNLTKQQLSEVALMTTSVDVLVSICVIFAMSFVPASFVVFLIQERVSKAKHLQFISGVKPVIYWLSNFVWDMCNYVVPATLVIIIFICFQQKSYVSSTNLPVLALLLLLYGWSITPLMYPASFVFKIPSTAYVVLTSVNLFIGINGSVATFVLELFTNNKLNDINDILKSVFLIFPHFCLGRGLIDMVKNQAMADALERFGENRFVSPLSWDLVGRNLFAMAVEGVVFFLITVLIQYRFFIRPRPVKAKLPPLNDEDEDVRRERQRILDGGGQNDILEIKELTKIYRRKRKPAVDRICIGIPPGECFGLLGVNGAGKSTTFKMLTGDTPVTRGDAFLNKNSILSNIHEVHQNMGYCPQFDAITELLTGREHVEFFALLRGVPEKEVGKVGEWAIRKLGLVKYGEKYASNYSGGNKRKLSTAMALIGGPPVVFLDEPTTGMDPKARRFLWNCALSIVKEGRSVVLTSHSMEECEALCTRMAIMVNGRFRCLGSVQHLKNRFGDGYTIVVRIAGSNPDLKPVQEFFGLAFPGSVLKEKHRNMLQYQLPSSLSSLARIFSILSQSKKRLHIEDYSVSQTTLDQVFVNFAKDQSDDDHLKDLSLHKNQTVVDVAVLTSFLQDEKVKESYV

- Inhibition of ABC1 activity (cholesterol efflux) [1]: inhibit ABC1 activity
Compound: COc1ccc(Cl)cc1C(=O)NCCc1ccc(S(=O)(=O)NC(=O)NC2CCCCC2)cc1 [Glyburide]
- Inhibition of iodide transport [2]: inhibit iodide transport
